# System: KRAS patient-derived spheroids with HUVEC/MSC, viability
# Assay: Anticancer human tumor 519858-162-T-J1-PDC patient-derived colon adenocarcinoma cell line growth inhibition [KRAS2]
# Conditions: for IC50: curve of first compound; for viability, T/C: stronger effect = lower value
# In short: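 Combination screen of spheroid viability in tumor-cell co-cultures with endothelial (HUVEC) and mesenchymal stem cell stroma. Each agent was tested in half-log dilutions, topping at clinical Cmax or at 10 microM without a known Cmax.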
# [1] = second compound 0.1 µM, first compound 0.01 µM
# [2] = second compound 0.1 µM, first compound 0.0316 µM
# [3] = second compound 0.1 µM, first compound 0.1 µM
# [4] = second compound 0.316 µM, first compound 0.01 µM
# [5] = second compound 0.316 µM, first compound 0.0316 µM
# [6] = second compound 0.316 µM, first compound 0.1 µM
# [7] = second compound 1 µM, first compound 0.01 µM
# [8] = second compound 1 µM, first compound 0.0316 µM
# [9] = second compound 1 µM, first compound 0.1 µM
# [10] = second compound 3.16 µM, first compound 0.01 µM
# [11] = second compound 3.16 µM, first compound 0.0316 µM
# [12] = second compound 3.16 µM, first compound 0.1 µM
# 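Also: compound exposure lasted seven days before readout.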
# 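For viability, T/C in this document: 100% = DMSO vehicle control viability.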
smiles,measurement,setting,value
CC(C)n1nc(-c2ccc3oc(N)nc3c2)c2c(N)ncnc21 + COc1cc2nc(C)nc(NC(C)c3cc(N)cc(C(F)(F)F)c3)c2cc1OC1CCOC1,IC50,second compound 0.1 µM,> 100 nM
same,IC50,second compound 0.316 µM,> 100 nM
same,IC50,second compound 1 µM,> 100 nM
same,IC50,second compound 3.16 µM,> 100 nM
same,IC50,second compound 10 µM,4.58 nM
same,"viability, T/C","second compound 0.1 µM, first compound 0.000316 µM",107%
same,"viability, T/C","second compound 0.1 µM, first compound 0.001 µM",93.9%
same,"viability, T/C","second compound 0.1 µM, first compound 0.00316 µM",79.3%
same,"viability, T/C",[1],73%
same,"viability, T/C",[2],70.9%
same,"viability, T/C",[3],74.9%
same,"viability, T/C","second compound 0.316 µM, first compound 0.000316 µM",89.1%
same,"viability, T/C","second compound 0.316 µM, first compound 0.001 µM",99.8%
same,"viability, T/C","second compound 0.316 µM, first compound 0.00316 µM",90.2%
same,"viability, T/C",[4],84.9%
same,"viability, T/C",[5],73.5%
same,"viability, T/C",[6],72.2%
same,"viability, T/C","second compound 1 µM, first compound 0.000316 µM",89.9%
same,"viability, T/C","second compound 1 µM, first compound 0.001 µM",84.8%
same,"viability, T/C","second compound 1 µM, first compound 0.00316 µM",75.5%
same,"viability, T/C",[7],67.8%
same,"viability, T/C",[8],65.6%
same,"viability, T/C",[9],77.4%
same,"viability, T/C","second compound 3.16 µM, first compound 0.000316 µM",117%
same,"viability, T/C","second compound 3.16 µM, first compound 0.001 µM",84.2%
same,"viability, T/C","second compound 3.16 µM, first compound 0.00316 µM",93.4%
same,"viability, T/C",[10],72.5%
same,"viability, T/C",[11],60.2%
same,"viability, T/C",[12],84.7%
same,"viability, T/C","second compound 10 µM, first compound 0.000316 µM",78.1%
same,"viability, T/C","second compound 10 µM, first compound 0.001 µM",71.7%
same,"viability, T/C","second compound 10 µM, first compound 0.00316 µM",54.3%
same,"viability, T/C","second compound 10 µM, first compound 0.01 µM",42.6%
same,"viability, T/C","second compound 10 µM, first compound 0.0316 µM",30.2%
same,"viability, T/C","second compound 10 µM, first compound 0.1 µM",45.6%
CC(=O)OC12COC1CC(O)C1(C)C(=O)C(O)C3=C(C)C(OC(=O)C(O)C(NC(=O)OC(C)(C)C)c4ccccc4)CC(O)(C(OC(=O)c4ccccc4)C21)C3(C)C (stereo not given) + C=CC(=O)N1CCN(c2nc(OCC3CCCN3C)nc3c2CCN(c2cccc4cccc(C)c24)C3)CC1CC#N,IC50,second compound 0.0316 µM,> 3160 nM
same,IC50,second compound 0.1 µM,> 3160 nM
same,IC50,second compound 0.316 µM,> 3160 nM
same,IC50,second compound 1 µM,> 3160 nM
same,IC50,second compound 3.16 µM,> 3160 nM
same,"viability, T/C","second compound 0.0316 µM, first compound 0.01 µM",107%
same,"viability, T/C","second compound 0.0316 µM, first compound 0.0316 µM",86%
same,"viability, T/C","second compound 0.0316 µM, first compound 0.1 µM",92.1%
same,"viability, T/C","second compound 0.0316 µM, first compound 0.316 µM",85.1%
same,"viability, T/C","second compound 0.0316 µM, first compound 1 µM",70%
same,"viability, T/C","second compound 0.0316 µM, first compound 3.16 µM",68.5%
same,"viability, T/C",[1],83%
same,"viability, T/C",[2],91.2%
same,"viability, T/C",[3],68.5%
same,"viability, T/C","second compound 0.1 µM, first compound 0.316 µM",69.4%
same,"viability, T/C","second compound 0.1 µM, first compound 1 µM",62.4%
same,"viability, T/C","second compound 0.1 µM, first compound 3.16 µM",75.1%
same,"viability, T/C",[4],67.5%
same,"viability, T/C",[5],64.6%
same,"viability, T/C",[6],86.9%
same,"viability, T/C","second compound 0.316 µM, first compound 0.316 µM",75%
same,"viability, T/C","second compound 0.316 µM, first compound 1 µM",58.7%
same,"viability, T/C","second compound 0.316 µM, first compound 3.16 µM",70.7%
same,"viability, T/C",[7],54.5%
same,"viability, T/C",[8],84.1%
same,"viability, T/C",[9],74.4%
same,"viability, T/C","second compound 1 µM, first compound 0.316 µM",73.2%
same,"viability, T/C","second compound 1 µM, first compound 1 µM",47.1%
same,"viability, T/C","second compound 1 µM, first compound 3.16 µM",74%
same,"viability, T/C",[10],94.1%
same,"viability, T/C",[11],80.1%
same,"viability, T/C",[12],98.4%
same,"viability, T/C","second compound 3.16 µM, first compound 0.316 µM",75.1%
same,"viability, T/C","second compound 3.16 µM, first compound 1 µM",71.5%
same,"viability, T/C","second compound 3.16 µM, first compound 3.16 µM",75.4%

# From PubChem BioAssay AID1963872 (Molecular Pharmacology Branch, DTP, NCI, 2024)
